Results reported in patent US10894042B2, “Methods and pharmaceutical compositions for the treatment of cancer” (INSERM (INSTITUT NATIONAL DE LA SANTÉ ET DE LA RECHERCHE …, priority 2014, dated 2021).
Where no end group is shown, it is not given here.

Legend:
[1] = test system: human colon cancer cells (LoVo cells); assay: Growth of tumors from human colon cancer cell xenografts in nude mice; type: in vivo; conditions: for tumor growth versus PBS control mice: LoVo xenograft in nude mice, 100 μg intraperitoneally 2 times/week, 48 days of treatment
Protocol: FIG. 4: Effect of ip inoculation of OxA (▴), Suvorexant (◯) and Almorexant (Δ) on the growth of tumors developed by xenografting human colon cancer cells in nude mice. A. LoVo cells were inoculated in the flank of nude mice at day 0. Mice were injected 2 times/week intraperitoneally with 100 μg of OxA, Suvorexant or Almorexant in 100 μl solutions or with 100 μl of PBS (●) for controls. After 48 days of treatment, mice were sacrificed and tumor volume and weight were then recorded. The development of tumors was followed by caliper measurement. B. treatment (2 injections/week) with various doses of Almorexant (1 mg/kg (□), 2.5 mg/kg (Δ) or 5 mg/kg (◯)) compared to OxA treatment (5 mg/kg, ▴). Control was performed by injection of 100 μl PBS (●).
The inventors investigated the effect of intraperitoneal inoculation of OxA, Suvorexant and Almorexant on the growth of tumors developed by xenografting human colon cancer cells (LoVo cells) in nude mice.

[2] = test system: colon adenocarcinoma HT-29 cells; assay: Cell growth determination, HT-29 cells; type: cell-based; conditions: 48 hr incubation, viable cells counted, OxA 0.1 μM, SB408124 increasing concentrations
Protocol: (§1) FIG. 2: Determination of the inhibition of cellular growth of HEK-OX1R cells and colon adenocarcinoma cells (HT-29) induced by […] of OxA or various concentrations of SB408124 antagonist. HEK-OX1R cells (black column) and HT-29 cells (white column) were incubated with 0.1 μM of OxA and indicated increasing concentration of SB408124, and cells were counted after 48 hr incubation. Results are expressed as the percentage of total viable cells.
(§2) HEK-OX1R cells or colon adenocarcinoma HT-29 cells were seeded, grown and maintained at 37° C. in a humidified 5% CO2/air incubator. After 24 hr culture, cells were treated with or without Orexin-A peptide or SB408124 antagonist, previously dissolved in DMSO, to be tested at the concentration indicated in the figure legends. After 48 hr of treatment, adherent cells were harvested by TriplE (Life Technologies, Saint Aubin, France) and manually counted. Apoptosis was determined using the Guava PCA system and the Guava nexin kit.

[3] = test system: HEK-OX1R cells; assay: Cell growth determination, HEK-OX1R cells; type: cell-based; conditions: 48 hr incubation, viable cells counted, OxA 0.1 μM, SB408124 increasing concentrations
Protocol: as §1, §2

[4] = biological target: T1, OX1R (Homo sapiens, UniProt O43613); assay: Ca2+ mobilization assay in HEK-OX1R cells (FluoForte); type: cell-based
T1 construct: HEK cells expressing recombinant native OX1R (HEK-OX1R) cells were seeded in 96-wells plate; expressed in transfected cells; host or cells: HEK cells (HEK-OX1R)
T1 sequence (O43613 1-425): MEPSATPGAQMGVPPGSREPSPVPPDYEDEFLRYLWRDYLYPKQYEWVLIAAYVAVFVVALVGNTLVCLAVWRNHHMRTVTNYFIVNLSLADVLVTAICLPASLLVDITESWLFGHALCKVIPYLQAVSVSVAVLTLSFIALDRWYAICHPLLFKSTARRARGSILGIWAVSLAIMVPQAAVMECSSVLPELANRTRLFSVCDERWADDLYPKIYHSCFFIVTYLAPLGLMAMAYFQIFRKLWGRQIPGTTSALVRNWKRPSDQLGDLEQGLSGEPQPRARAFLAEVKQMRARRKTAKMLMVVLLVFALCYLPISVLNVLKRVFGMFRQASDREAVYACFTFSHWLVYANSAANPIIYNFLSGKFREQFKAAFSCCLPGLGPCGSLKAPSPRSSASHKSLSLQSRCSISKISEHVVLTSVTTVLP
Protocol: FIG. 1: Effect of orexin-A and SB408124 antagonist on Ca2+ mobilization in HEK-OX1R cells. Top, HEK-OX1R cells were incubated with fluorescence probe (FluoForte) for 45 min. at 37° C. according to FluoForte calcium assay kit (Enzo Life Sciences). 1 μM of OxA was added to cells and fluorescence emission was measured on TECAN Infinite 200 fluorospectrophotometer. Bottom, HEK-OX1R cells were incubated with fluorescence probe (FluoForte) for 45 min. at 37° C. and then incubated with 1 μM of SB408124 for 1 h at 37° C. After pre-incubation, 1 μM of OxA was added to cells and fluorescence emission was measured.
HEK cells expressing recombinant native OX1R (HEK-OX1R) cells were seeded in 96-wells plate, grown and maintained at 37° C. in a humidified 5% CO2/air incubator. 80,000 cells/well were incubated with FluoForte probe according to FluoForte calcium assay kit (ENZO life Sciences, Farmingdale, N.Y., USA) for 45 min. at 37° C. and then incubated with or without 1 μM of SB408124 antagonist for 1 h at 37° C. After pre-incubation, 1 μM of OxA was added and fluorescence was determined using TECAN Infinite 200 fluorospectrophotometer.

[5] = test system: OX1R expressing colon adenocarcinoma cells, HT-29; assay: Apoptosis assay (annexin V-PE binding, Guava nexin kit), HT-29 cells; type: cell-based; conditions: for apoptosis (annexin V-PE binding): HT-29 cells, 48 h, 1 μM orexin-A or various concentrations of SB408124
Protocol: FIG. 3: Effect of orexin-A and SB408124 antagonist on apoptosis in OX1R expressing colon adenocarcinoma cells, HT-29. HT-29 cells were challenged with 1 μM orexin-A or various concentration of SB408124 for 48 h. Apoptosis was measured by determination of annexin V-PE binding, and results are expressed as the percentage of apoptotic cells. Results are means±SE of three experiments. ***P<0.001.
as §2

CNC(=O)[C@@H](c1ccccc1)N1CCc2cc(OC)c(OC)cc2[C@@H]1CCc1ccc(C(F)(F)F)cc1 [Almorexant]
tumor growth versus PBS control mice [1]: significantly smaller tumors
tumor growth inhibition, dose dependence ([1]; LoVo xenograft in nude mice, 1, 2.5 or 5 mg/kg, 2 injections/week): induce in a dose-dependent manner tumor growth inhibition

Cc1cc(NC(=O)Nc2ccc(N(C)C)cc2)c2cc(F)cc(F)c2n1 [SB408124]
inhibition of cellular growth [2]: strong inhibition in a dose-dependent manner
inhibition of cellular growth [3]: strong inhibition in a dose-dependent manner
agonist/antagonist character for OX1R-mediated calcium mobilization [4]: full antagonist
effect on OxA-induced Ca2+ mobilization ([4]; preincubation with 1 μM SB408124 for 1 h at 37° C., then 1 μM OxA): totally abolished
apoptosis (annexin V-PE binding) [5]: induce in a dose-dependent manner cell apoptosis
agonist/antagonist character for OX1R-mediated mitochondrial apoptosis ([5]; colon cancer cell line): full agonist

Cc1ccc(-n2nccn2)c(C(=O)N2CCN(c3nc4cc(Cl)ccc4o3)CC[C@H]2C)c1 [Suvorexant]
tumor growth versus PBS control mice [1]: significantly smaller tumors

OxA: orexin A, a 33 amino acid neuropeptide, the natural OX1R agonist (QPLPDCCRQKTCSCRLYELLHGAGNHAAGILTL; ends and bridges not checked; cysteine pairing not given here; UniProt O43612 34-66, looked up)
inhibition of cellular growth [2]: strong inhibition
inhibition of cellular growth [3]: strong inhibition
Ca2+ mobilization ([4]; 1 μM OxA, fluorescence (FluoForte)): large and transient
tumor growth versus PBS control mice [1]: significantly smaller tumors
apoptosis (annexin V-PE binding) [5]: induced an apoptotic effect
